Tested on: 435261-313-R-J1-PDC tumor spheroid viability
Experiment: Anticancer human tumor 435261-313-R-J1-PDC patient-derived colon adenocarcinoma cell line growth inhibition [PI3K]
Details: spheroids with HUVEC and MSC; for IC50: curve of first compound; for viability, T/C: stronger effect = lower value; active = viability on the fitted dose curve at most 10% of control; inactive = the rest
Outline: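 Targeted small molecules plus PI3K inhibitors, half-log dose series from Cmax (default top 10 microM), were applied to heterotypic spheroids of cancer cells with HUVEC and MSCs. Viability indicated growth inhibition.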

[1] = second compound 0.0316 µM, first compound 0.0316 µM
[2] = second compound 0.0316 µM, first compound 0.1 µM
[3] = second compound 0.0316 µM, first compound 0.316 µM
[4] = second compound 0.0316 µM, first compound 1 µM
[5] = second compound 0.0316 µM, first compound 3.16 µM
[6] = second compound 0.0316 µM, first compound 10 µM
[7] = second compound 0.1 µM, first compound 0.0316 µM
[8] = second compound 0.1 µM, first compound 0.1 µM
[9] = second compound 0.1 µM, first compound 0.316 µM
[10] = second compound 0.1 µM, first compound 1 µM
[11] = second compound 0.1 µM, first compound 3.16 µM
[12] = second compound 0.1 µM, first compound 10 µM
[13] = second compound 0.316 µM, first compound 0.0316 µM
[14] = second compound 0.316 µM, first compound 0.1 µM
[15] = second compound 0.316 µM, first compound 0.316 µM
[16] = second compound 0.316 µM, first compound 1 µM
[17] = second compound 0.316 µM, first compound 3.16 µM
[18] = second compound 0.316 µM, first compound 10 µM
[19] = second compound 1 µM, first compound 0.0316 µM
[20] = second compound 1 µM, first compound 0.1 µM
[21] = second compound 1 µM, first compound 0.316 µM
[22] = second compound 1 µM, first compound 1 µM
[23] = second compound 1 µM, first compound 3.16 µM
[24] = second compound 1 µM, first compound 10 µM
[25] = second compound 3.16 µM, first compound 0.0316 µM
[26] = second compound 3.16 µM, first compound 0.1 µM
[27] = second compound 3.16 µM, first compound 0.316 µM
[28] = second compound 3.16 µM, first compound 1 µM
[29] = second compound 3.16 µM, first compound 3.16 µM
[30] = second compound 3.16 µM, first compound 10 µM
[31] = second compound 10 µM, first compound 0.0316 µM
[32] = second compound 10 µM, first compound 0.1 µM
[33] = second compound 10 µM, first compound 0.316 µM
[34] = second compound 10 µM, first compound 1 µM
[35] = second compound 10 µM, first compound 3.16 µM
[36] = second compound 10 µM, first compound 10 µM
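Note: spheroids exposed to compounds for 7 days.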

C#Cc1c(F)ccc2cc(O)cc(-c3ncc4c(N5CC6CCC(C5)N6)nc(OCC56CCCN5CC(F)C6)nc4c3F)c12 (stereo not given) + Cc1nc(NC(=O)N2CCCC2C(N)=O)sc1-c1ccnc(C(C)(C)C(F)(F)F)c1
inactive: viability, T/C [1] 73.7% | viability, T/C [2] 78% | viability, T/C [3] 102% | viability, T/C [4] 49% | viability, T/C [5] 70.5% | viability, T/C [6] 35.6% | viability, T/C [7] 61.1% | viability, T/C [8] 77% | viability, T/C [9] 98.3% | viability, T/C [10] 58.2% | viability, T/C [11] 43.8% | viability, T/C [12] 18.4% | viability, T/C [13] 39.2% | viability, T/C [14] 67.5% | viability, T/C [15] 46.2% | viability, T/C [16] 51.7% | viability, T/C [17] 27.1% | viability, T/C [18] 12.6% | viability, T/C [19] 23.7% | viability, T/C [20] 27% | viability, T/C [21] 28.4% | viability, T/C [22] 27.9% | viability, T/C [23] 13.9% | viability, T/C [24] 7.05% | viability, T/C [25] 17.1% | viability, T/C [26] 19.7% | viability, T/C [27] 11.3%
1.06 µM: IC50 (second compound 0.316 µM)
active: viability, T/C [28] 8.79% | viability, T/C [29] 6.05% | viability, T/C [30] 1.23% | viability, T/C [31] 9.19% | viability, T/C [32] 6.14% | viability, T/C [33] 3.65% | viability, T/C [34] 3.37% | viability, T/C [35] 2.05% | viability, T/C [36] 0.32%
< 0.0316 µM: IC50 (second compound 1 µM) | IC50 (second compound 3.16 µM) | IC50 (second compound 10 µM)
2.13 µM: IC50 (second compound 0.1 µM)
5.47 µM: IC50 (second compound 0.0316 µM)

C=CC(=O)N1CCN(c2nc(=O)n(-c3c(C)ccnc3C(C)C)c3nc(-c4c(O)cccc4F)c(F)cc23)C(C)C1 (stereo not given) + Cc1nc(NC(=O)N2CCCC2C(N)=O)sc1-c1ccnc(C(C)(C)C(F)(F)F)c1
< 0.0316 µM: IC50 (second compound 1 µM) | IC50 (second compound 3.16 µM) | IC50 (second compound 10 µM)
> 10 µM: IC50 (second compound 0.0316 µM) | IC50 (second compound 0.1 µM) | IC50 (second compound 0.316 µM)
inactive: viability, T/C [1] 70.5% | viability, T/C [2] 84% | viability, T/C [3] 80.8% | viability, T/C [4] 91.5% | viability, T/C [5] 112% | viability, T/C [6] 121% | viability, T/C [7] 71.5% | viability, T/C [8] 71.3% | viability, T/C [9] 73.5% | viability, T/C [10] 75% | viability, T/C [11] 129% | viability, T/C [12] 119% | viability, T/C [13] 49.5% | viability, T/C [14] 52.4% | viability, T/C [15] 56.9% | viability, T/C [16] 58.4% | viability, T/C [17] 77.1% | viability, T/C [18] 78.9% | viability, T/C [19] 35.1% | viability, T/C [20] 25.1% | viability, T/C [21] 27.6% | viability, T/C [22] 39.6% | viability, T/C [23] 36.6% | viability, T/C [24] 54.8% | viability, T/C [25] 15.3% | viability, T/C [26] 19.4% | viability, T/C [27] 17.9% | viability, T/C [28] 23% | viability, T/C [29] 24.3% | viability, T/C [30] 18.6%
active: viability, T/C [31] 9.68% | viability, T/C [32] 9.35% | viability, T/C [33] 8.96% | viability, T/C [34] 9.4% | viability, T/C [35] 9.55% | viability, T/C [36] 6.21%

CC(Cn1ccc(-c2ccc(C#N)c(Cl)c2)n1)NC(=O)c1cc(C(C)O)[nH]n1 (stereo not given) + Cc1nc(NC(=O)N2CCCC2C(N)=O)sc1-c1ccnc(C(C)(C)C(F)(F)F)c1
< 0.0316 µM: IC50 (second compound 0.316 µM) | IC50 (second compound 1 µM) | IC50 (second compound 3.16 µM) | IC50 (second compound 10 µM)
inactive: viability, T/C [1] 107% | viability, T/C [2] 71.6% | viability, T/C [3] 83.6% | viability, T/C [4] 84.8% | viability, T/C [5] 101% | viability, T/C [6] 106% | viability, T/C [7] 68.3% | viability, T/C [8] 70.4% | viability, T/C [9] 71.3% | viability, T/C [10] 72.2% | viability, T/C [11] 66.3% | viability, T/C [12] 73.7% | viability, T/C [13] 37.6% | viability, T/C [14] 54.1% | viability, T/C [15] 37.3% | viability, T/C [16] 50.9% | viability, T/C [17] 63.7% | viability, T/C [18] 49.4% | viability, T/C [19] 24.6% | viability, T/C [20] 36.8% | viability, T/C [21] 36.3% | viability, T/C [22] 34.2% | viability, T/C [23] 38.6% | viability, T/C [24] 31.6% | viability, T/C [25] 17.4% | viability, T/C [26] 17.7% | viability, T/C [27] 15.4% | viability, T/C [28] 17.9% | viability, T/C [29] 18.8% | viability, T/C [30] 20.1%
active: viability, T/C [31] 9.77% | viability, T/C [32] 6.96% | viability, T/C [33] 8.76% | viability, T/C [34] 9.85% | viability, T/C [35] 10.7% | viability, T/C [36] 6%
> 10 µM: IC50 (second compound 0.0316 µM) | IC50 (second compound 0.1 µM)

Cn1ncc(Cl)c1-c1cc(C(=O)NC(CN)Cc2cccc(F)c2)sc1Cl (stereo not given) + Cc1nc(NC(=O)N2CCCC2C(N)=O)sc1-c1ccnc(C(C)(C)C(F)(F)F)c1
0.579 µM: IC50 (second compound 0.0316 µM)
active: viability, T/C [18] 7.01% | viability, T/C [24] 4.12% | viability, T/C [29] 11.9% | viability, T/C [30] 1.21% | viability, T/C [31] 9.08% | viability, T/C [32] 7.96% | viability, T/C [33] 6.42% | viability, T/C [34] 8.32% | viability, T/C [35] 4.5% | viability, T/C [36] 0.47%
< 0.0316 µM: IC50 (second compound 0.316 µM) | IC50 (second compound 1 µM) | IC50 (second compound 3.16 µM) | IC50 (second compound 10 µM)
0.4 µM: IC50 (second compound 0.1 µM)
inactive: viability, T/C [1] 83.5% | viability, T/C [2] 67.3% | viability, T/C [3] 71.8% | viability, T/C [4] 31.2% | viability, T/C [5] 18.6% | viability, T/C [6] 6.47% | viability, T/C [7] 58.5% | viability, T/C [8] 82% | viability, T/C [9] 51.6% | viability, T/C [10] 28.1% | viability, T/C [11] 21.7% | viability, T/C [12] 6.76% | viability, T/C [13] 42.9% | viability, T/C [14] 41% | viability, T/C [15] 38% | viability, T/C [16] 27.2% | viability, T/C [17] 14.2% | viability, T/C [19] 31.9% | viability, T/C [20] 34.8% | viability, T/C [21] 29.2% | viability, T/C [22] 19.1% | viability, T/C [23] 16.2% | viability, T/C [25] 15.7% | viability, T/C [26] 14.7% | viability, T/C [27] 15.8% | viability, T/C [28] 16.9%

Cn1nccc1Nc1nccc(-c2ccn(C(CO)c3ccc(Cl)c(F)c3)c(=O)c2)n1 (stereo not given) + Cc1nc(NC(=O)N2CCCC2C(N)=O)sc1-c1ccnc(C(C)(C)C(F)(F)F)c1
< 0.0316 µM: IC50 (second compound 0.316 µM) | IC50 (second compound 1 µM) | IC50 (second compound 3.16 µM) | IC50 (second compound 10 µM)
0.119 µM: IC50 (second compound 0.1 µM)
active: viability, T/C [18] 7.34% | viability, T/C [22] 8% | viability, T/C [23] 7.78% | viability, T/C [24] 3.02% | viability, T/C [27] 9.01% | viability, T/C [28] 4.15% | viability, T/C [29] 3.68% | viability, T/C [30] 1.12% | viability, T/C [31] 7.41% | viability, T/C [32] 4.45% | viability, T/C [33] 2.55% | viability, T/C [34] 1.89% | viability, T/C [35] 0.52% | viability, T/C [36] 0.24%
0.147 µM: IC50 (second compound 0.0316 µM)
inactive: viability, T/C [1] 62.5% | viability, T/C [2] 58.2% | viability, T/C [3] 37% | viability, T/C [4] 24.5% | viability, T/C [5] 20.9% | viability, T/C [6] 11.4% | viability, T/C [7] 53.1% | viability, T/C [8] 54.8% | viability, T/C [9] 32.4% | viability, T/C [10] 18.5% | viability, T/C [11] 17.9% | viability, T/C [12] 10.8% | viability, T/C [13] 36% | viability, T/C [14] 36.4% | viability, T/C [15] 21.3% | viability, T/C [16] 12.9% | viability, T/C [17] 14% | viability, T/C [19] 19.1% | viability, T/C [20] 18.9% | viability, T/C [21] 11.6% | viability, T/C [25] 13.6% | viability, T/C [26] 10.8%

From PubChem BioAssay AID1963976 (Molecular Pharmacology Branch, DTP, NCI, 2024)
